We go through two molecules from publication PMC8403083 (OncoTargets and therapy, 2021).

A word on the IC50: it is the concentration that gives 50% inhibition. Read a low IC50 as greater potency.

One assay addresses T1, CD73 (5ʹ-Nucleotidase) (Homo sapiens, UniProt P21589).
T1 sequence (P21589 27-547): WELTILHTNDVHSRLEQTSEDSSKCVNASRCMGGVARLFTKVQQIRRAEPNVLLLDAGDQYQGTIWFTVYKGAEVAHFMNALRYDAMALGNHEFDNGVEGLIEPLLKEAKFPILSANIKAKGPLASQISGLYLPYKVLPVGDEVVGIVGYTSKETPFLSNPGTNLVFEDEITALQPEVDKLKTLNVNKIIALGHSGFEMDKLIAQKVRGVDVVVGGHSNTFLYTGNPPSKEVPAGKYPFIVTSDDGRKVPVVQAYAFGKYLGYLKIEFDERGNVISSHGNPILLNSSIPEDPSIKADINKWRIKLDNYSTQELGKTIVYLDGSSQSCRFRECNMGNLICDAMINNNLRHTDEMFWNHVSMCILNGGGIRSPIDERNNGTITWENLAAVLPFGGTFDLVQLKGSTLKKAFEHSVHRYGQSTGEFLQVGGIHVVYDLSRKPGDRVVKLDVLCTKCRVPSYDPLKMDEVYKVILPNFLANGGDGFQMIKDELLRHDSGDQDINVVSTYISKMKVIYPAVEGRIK
Briefly: Malachite green phosphate assay, CMP substrate, […] h preincubation. Type of assay: biochemical.

For another assay, the target named is T2, CD73 (Mus musculus, UniProt Q61503).
T2 sequence (Q61503 29-551): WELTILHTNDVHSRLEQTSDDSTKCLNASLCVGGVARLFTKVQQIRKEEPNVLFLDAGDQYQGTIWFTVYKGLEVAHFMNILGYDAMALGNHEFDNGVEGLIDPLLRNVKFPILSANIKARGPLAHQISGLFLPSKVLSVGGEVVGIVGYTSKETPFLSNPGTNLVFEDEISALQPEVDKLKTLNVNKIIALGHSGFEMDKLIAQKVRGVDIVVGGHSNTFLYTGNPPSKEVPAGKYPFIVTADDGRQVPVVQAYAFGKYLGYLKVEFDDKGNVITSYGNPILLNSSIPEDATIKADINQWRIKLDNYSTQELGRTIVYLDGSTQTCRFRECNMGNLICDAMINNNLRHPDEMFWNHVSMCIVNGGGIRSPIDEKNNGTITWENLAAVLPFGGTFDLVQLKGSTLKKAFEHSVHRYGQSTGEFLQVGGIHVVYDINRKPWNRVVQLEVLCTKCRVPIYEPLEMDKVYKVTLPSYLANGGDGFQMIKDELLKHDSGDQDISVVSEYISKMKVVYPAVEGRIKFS
Briefly: CMP hydrolysis by EMT6 cells, Malachite green phosphate detection. It counts as cell-based.

For the molecule `Nc1ncnc2c1ncn2[C@@H]1O[C@H](COP(=O)(O)CP(=O)(O)O)[C@@H](O)[C@H]1O` [AMPCP], the half-maximal inhibitory concentration (IC50) against CD73 (5ʹ-Nucleotidase) is 3.8 ± 0.8 nM; against CD73, 130 ± 8 nM.
Regarding `O=P(O)(O)COC[C@H]1O[C@@H](n2ncc3c(N4CC5(CCc6ccccc65)C4)nc(Cl)nc32)[C@H](O)[C@@H]1O` [SHR170008, ((((2R,3S,4R,5R)-5-(6-chloro-4-(2ʹ,3ʹ-dihydrospiro[azetidine-3,1ʹ-inden]-1-yl)-1H-pyrazolo[3,4-d]pyrimidin-1-yl)-3,4-dihydroxytetrahydrofuran-2-yl)methoxy)methyl) phosphonic acid], at CD73, the midpoint of inhibition, the IC50, lay at 0.133 ± 0.008 nM.
